For data set [1], the system named is Staphylococcus aureus. In words: Antibacterial activity against Staphylococcus aureus ATCC 25923 assessed as inhibition of bacterial growth incubated for 24 hrs. The data set is classed as functional.
Data set [2] relates to Streptococcus pyogenes. In words: Antibacterial activity against Streptococcus pyogenes ATCC 19615 assessed as inhibition of bacterial growth incubated for 24 hrs. The data set is classed as functional.
The subject of data set [3] is Enterococcus faecalis. The data set can be described thus: Antibacterial activity against vancomycin-resistant Enterococcus faecalis clinical isolate p1-2007226001 assessed as inhibition of bacterial growth incubated for 24 hrs. The data set is classed as functional.
Data set [4] relates to Pseudomonas aeruginosa. The data set can be described thus: Antibacterial activity against Pseudomonas aeruginosa ATCC 27853 assessed as inhibition of bacterial growth incubated for 24 hrs. The data set is classed as functional.
Data set [5] deals with Staphylococcus aureus. In words: Antibacterial activity against Staphylococcus aureus clinical isolate assessed as inhibition of bacterial growth incubated for 24 hrs. The data set is classed as functional.
Data set [6] relates to Streptococcus pneumoniae. In words: Antibacterial activity against Streptococcus pneumoniae ATCC 6305 assessed as inhibition of bacterial growth incubated for 24 hrs. The data set is classed as functional.
Data set [7] relates to Staphylococcus aureus. In words: Antibacterial activity against Staphylococcus aureus CMCC(B)26003 assessed as inhibition of bacterial growth incubated for 24 hrs. The data set is classed as functional.
Data set [8] concerns Escherichia coli. In words: Antibacterial activity against Escherichia coli ATCC 25922 assessed as inhibition of bacterial growth incubated for 24 hrs. The data set is classed as functional.
In data set [9] the test system is Escherichia coli. In words: Antibacterial activity against Escherichia coli clinical isolate assessed as inhibition of bacterial growth incubated for 24 hrs. The data set is classed as functional.
Data set [10] concerns Pseudomonas aeruginosa. The data set can be described thus: Antibacterial activity against Pseudomonas aeruginosa clinical isolate assessed as inhibition of bacterial growth incubated for 24 hrs. The data set is classed as functional.
Data set [11] concerns Staphylococcus aureus. In words: Antibacterial activity against Staphylococcus aureus ATCC 29213 assessed as inhibition of bacterial growth incubated for 24 hrs. The data set is classed as functional.
In data set [12] the test system is Staphylococcus epidermidis. In words: Antibacterial activity against Staphylococcus epidermidis ATCC 12228 assessed as inhibition of bacterial growth incubated for 24 hrs. The data set is classed as functional.
For data set [13], the system named is Erythrocyte. The data set can be described thus: Hemolytic activity in human Red blood cells assessed as concentration required for 5% hemolysis measured after 1.5 hrs by absorbance based assay. The data set is classed as toxicity, cell-based.
Data set [14] relates to Staphylococcus aureus. In words: Antibacterial activity against methicillin resistant Staphylococcus aureus clinical isolate assessed as inhibition of bacterial growth incubated for 24 hrs. The data set is classed as functional.
The test system of data set [15] is Acinetobacter baumannii. The data set can be described thus: Antibacterial activity against Acinetobacter baumannii clinical isolate assessed as inhibition of bacterial growth incubated for 24 hrs. The data set is classed as functional.
Data set [16] deals with Staphylococcus aureus. The data set can be described thus: Antibacterial activity against Staphylococcus aureus ATCC 6538 assessed as inhibition of bacterial growth incubated for 24 hrs. The data set is classed as functional.
Data set [17] relates to Staphylococcus aureus. In words: Antibacterial activity against Staphylococcus aureus ATCC 12600 assessed as inhibition of bacterial growth incubated for 24 hrs. The data set is classed as functional.
In data set [18] the test system is Klebsiella pneumoniae. The data set can be described thus: Antibacterial activity against Klebsiella pneumoniae clinical isolate assessed as inhibition of bacterial growth incubated for 24 hrs. The data set is classed as functional.
In data set [19] the test system is Staphylococcus aureus. The data set can be described thus: Antibacterial activity against Staphylococcus aureus CMCC(B)26001 assessed as inhibition of bacterial growth incubated for 24 hrs. The data set is classed as functional.
The test system of data set [20] is Enterococcus faecalis. In words: Antibacterial activity against vancomycin-resistant Enterococcus faecalis clinical isolate p1-2007225053 assessed as inhibition of bacterial growth incubated for 24 hrs. The data set is classed as functional.
Data set [21] concerns Staphylococcus aureus. In words: Antibacterial activity against methicillin-resistant Staphylococcus aureus ATCC 43300 assessed as inhibition of bacterial growth incubated for 24 hrs. The data set is classed as functional.
For data set [22], the system named is Enterococcus faecium. The data set can be described thus: Antibacterial activity against Enterococcus faecium ATCC 19434 assessed as inhibition of bacterial growth incubated for 24 hrs. The data set is classed as functional.
Data set [23] relates to Enterococcus faecalis. In words: Antibacterial activity against Enterococcus faecalis clinical isolate assessed as inhibition of bacterial growth incubated for 24 hrs. The data set is classed as functional.

The structures appear in SMILES notation. In brackets after ≈: the same amount, converted by molar mass.

The values below come from ChEMBL document CHEMBL5506059, “Cyanomethylquinolones as a New Class of Potential Multitargeting Broad-Spectrum Antibacterial Agents” (J Med Chem, 2024).

For orientation: MIC means the lowest concentration found to suppress growth.

With `CCCCCCCCn1cc(C(=O)O)c(=O)c2cc(F)c(CC#N)cc21`, the minimum inhibitory concentration (MIC) came to 1 µg/mL (≈ 2.79 µM) in data set [1]; 2 µg/mL (≈ 5.58 µM) in data set [2]; 128 µg/mL (≈ 357 µM) in data set [3]; 256 µg/mL (≈ 714 µM) in data set [4]; 256 µg/mL (≈ 714 µM) in data set [5]; 64 µg/mL (≈ 179 µM) in [6]. In addition, the minimum inhibitory concentration (MIC) in [7] is 2 µg/mL (≈ 5.58 µM); in data set [8] it was 256 µg/mL (≈ 714 µM); in data set [9] it was 0.5 µg/mL (≈ 1.4 µM); in data set [10] it was 2 µg/mL (≈ 5.58 µM); in data set [11], 256 µg/mL (≈ 714 µM); in data set [12], 128 µg/mL (≈ 357 µM). For the same compound, the MIC in data set [14] was determined as 256 µg/mL (≈ 714 µM); in data set [15], 256 µg/mL (≈ 714 µM); in data set [16] it was 64 µg/mL (≈ 179 µM); in data set [17], 32 µg/mL (≈ 89.3 µM); in data set [18], 256 µg/mL (≈ 714 µM); in data set [19] it was 2 µg/mL (≈ 5.58 µM). Further, the minimal inhibitory concentration (MIC) in [20] came to 256 µg/mL (≈ 714 µM); in data set [21] it was 64 µg/mL (≈ 179 µM); in data set [22], 128 µg/mL (≈ 357 µM); in [23] it was 256 µg/mL (≈ 714 µM). Further, in data set [13], the HC5 came to 258 µg/mL.

In the case of `N#CCc1cc2c(cc1F)c(=O)c(C(=O)O)cn2Cc1ccccc1`, the MIC in [1] amounted to 0.25 µg/mL (≈ 0.743 µM); in [4], 1 µg/mL (≈ 2.97 µM); in data set [5], 256 µg/mL (≈ 761 µM); in data set [8], 0.25 µg/mL (≈ 0.743 µM); in data set [9], 2 µg/mL (≈ 5.95 µM); in [10], 0.25 µg/mL (≈ 0.743 µM). For the same compound, the MIC in data set [11] came out at 0.5 µg/mL (≈ 1.49 µM); in data set [14], 8 µg/mL (≈ 23.8 µM); in data set [15], 256 µg/mL (≈ 761 µM); in [18], 0.5 µg/mL (≈ 1.49 µM); in data set [23] it was 4 µg/mL (≈ 11.9 µM).

Regarding `CCCCCn1cc(C(=O)O)c(=O)c2cc(F)c(CC#N)cc21`, the MIC was determined as 0.25 µg/mL (≈ 0.79 µM) in data set [1]; 4 µg/mL (≈ 12.6 µM) in data set [4]; 256 µg/mL (≈ 809 µM) in data set [5]; 0.25 µg/mL (≈ 0.79 µM) in data set [8]; 16 µg/mL (≈ 50.6 µM) in data set [9]; 1 µg/mL (≈ 3.16 µM) in data set [10]. Further, the MIC in data set [11] was 8 µg/mL (≈ 25.3 µM); in data set [14], 0.5 µg/mL (≈ 1.58 µM); in data set [15], 256 µg/mL (≈ 809 µM); in data set [18], 1 µg/mL (≈ 3.16 µM); in [23], 256 µg/mL (≈ 809 µM).

Take `N#CCc1cc2c(cc1F)c(=O)c(C(=O)O)cn2Cc1ccc(C(F)(F)F)cc1`: the MIC turned out to be 2 µg/mL (≈ 4.95 µM) in data set [1]; 8 µg/mL (≈ 19.8 µM) in data set [4]; 8 µg/mL (≈ 19.8 µM) in data set [5]; 8 µg/mL (≈ 19.8 µM) in data set [8]; 256 µg/mL (≈ 633 µM) in data set [9]; 16 µg/mL (≈ 39.6 µM) in [10]. Also, the MIC in [11] was determined as 4 µg/mL (≈ 9.89 µM); in [14], 16 µg/mL (≈ 39.6 µM); in [15], 64 µg/mL (≈ 158 µM); in [18] it was 64 µg/mL (≈ 158 µM); in [23] it was 0.5 µg/mL (≈ 1.24 µM).

Turning to `N#CCc1cc2c(cc1F)c(=O)c(C(=O)O)cn2Cc1ccc(Cl)cc1Cl`, the MIC stood at 0.5 µg/mL (≈ 1.23 µM) in data set [1]; 32 µg/mL (≈ 79 µM) in data set [4]; 256 µg/mL (≈ 632 µM) in [5]; 1 µg/mL (≈ 2.47 µM) in [8]; 1 µg/mL (≈ 2.47 µM) in data set [9]; 0.5 µg/mL (≈ 1.23 µM) in data set [10]. Also, the MIC worked out at 2 µg/mL (≈ 4.94 µM) in [11]; 256 µg/mL (≈ 632 µM) in data set [14]; 8 µg/mL (≈ 19.7 µM) in [15]; 16 µg/mL (≈ 39.5 µM) in data set [18]; 256 µg/mL (≈ 632 µM) in data set [23].

On to `N#CCc1cc2c(cc1F)c(=O)c(C(=O)O)cn2Cc1ccc(Cl)c(Cl)c1`, for which the MIC in data set [1] was found to be 0.25 µg/mL (≈ 0.617 µM); in [4] it was 2 µg/mL (≈ 4.94 µM); in data set [5], 256 µg/mL (≈ 632 µM); in data set [8], 2 µg/mL (≈ 4.94 µM); in data set [9], 8 µg/mL (≈ 19.7 µM); in [10] it was 0.5 µg/mL (≈ 1.23 µM). Besides, the MIC is 2 µg/mL (≈ 4.94 µM) in [11]; 256 µg/mL (≈ 632 µM) in data set [14]; 0.5 µg/mL (≈ 1.23 µM) in [15]; 16 µg/mL (≈ 39.5 µM) in [18]; 256 µg/mL (≈ 632 µM) in data set [23].

For `N#CCc1cc2c(cc1F)c(=O)c(C(=O)O)cn2CC1CCC1`, the minimum inhibitory concentration (MIC) in data set [1] worked out at 0.5 µg/mL (≈ 1.59 µM); in [4], 128 µg/mL (≈ 407 µM); in [5], 64 µg/mL (≈ 204 µM); in data set [8] it was 128 µg/mL (≈ 407 µM); in data set [9], 128 µg/mL (≈ 407 µM); in data set [10], 256 µg/mL (≈ 814 µM). Further, the minimal inhibitory concentration (MIC) in data set [11] was determined as 256 µg/mL (≈ 814 µM); in data set [14], 128 µg/mL (≈ 407 µM); in data set [15] it was 256 µg/mL (≈ 814 µM); in data set [18] it was 256 µg/mL (≈ 814 µM); in data set [23], 32 µg/mL (≈ 102 µM).

For the compound `CCCn1cc(C(=O)O)c(=O)c2cc(F)c(CC#N)cc21`, the MIC in data set [1] is 0.25 µg/mL (≈ 0.867 µM); in [4], 2 µg/mL (≈ 6.94 µM); in [5], 4 µg/mL (≈ 13.9 µM); in data set [8] it was 2 µg/mL (≈ 6.94 µM); in data set [9] it was 8 µg/mL (≈ 27.8 µM); in data set [10], 0.5 µg/mL (≈ 1.73 µM). Besides, the MIC in data set [11] came to 4 µg/mL (≈ 13.9 µM); in [14] it was 1 µg/mL (≈ 3.47 µM); in data set [15], 32 µg/mL (≈ 111 µM); in data set [18], 1 µg/mL (≈ 3.47 µM); in data set [23], 32 µg/mL (≈ 111 µM).
